# Source: ChEMBL document CHEMBL1201862, “PubChem BioAssay data set” (2004)
#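 Following 48 hours of exposure in 96-well plates, responses at five concentrations were used to interpolate endpoints linearly. Abbreviation: GI50, concentration required for 50% inhibition of growth.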 Calls of active or inactive are those of the source. No stated cut-off is given here; in the data, active = GI50 up to about 1.1 µM and inactive = higher.
# How the values were obtained:
# Assay in all cases: inhibition of tumour cell growth, NCI panel, 48 h
# [1] = system: T47D
# [2] = system: CCRF-CEM
# [3] = system: CAKI-1
# [4] = system: NCI-H460
# [5] = system: EKVX
# [6] = system: SN12C
# [7] = system: HOP-62
# [8] = system: PC-3
# [9] = system: A498
# [10] = system: MDA-MB-231
# [11] = system: IGROV-1
# [12] = system: MDA-MB-435
# [13] = system: SK-MEL-28
# [14] = system: UO-31
# [15] = system: M14
# [16] = system: RXF 393
# [17] = system: SK-MEL-2
# [18] = system: OVCAR-3
# [19] = system: SF-295
# [20] = system: SNB-19
# [21] = system: SK-OV-3
# [22] = system: K562
# [23] = system: Hs-578T
# [24] = system: SF-268
# [25] = system: UACC-257
# [26] = system: 786-0
# [27] = system: SW-620
# [28] = system: HCC 2998
# [29] = system: NCI-H226
# [30] = system: NCI-H522
# [31] = system: UACC-62
# [32] = system: HT-29
# [33] = system: NCI/ADR-RES
# [34] = system: OVCAR-5
# [35] = system: DU-145
# [36] = system: HCT-116
# [37] = system: TK-10
# [38] = system: HCT-15
# [39] = system: SK-MEL-5
# [40] = system: BT-549
# [41] = system: LOX IMVI
# [42] = system: SNB-75
# [43] = system: OVCAR-8
# [44] = system: HOP-92
# [45] = system: U-251
# [46] = system: OVCAR-4
# [47] = system: Malme-3M
# [48] = system: MDA-N
# [49] = system: ACHN
# [50] = system: KM12
# [51] = system: MOLT-4
# [52] = system: COLO 205
# [53] = system: NCI-H23
# [54] = system: A549
# [55] = system: RPMI-8226
compound,measurement,setting,value
O=S(=O)(c1ccc(Br)cc1)n1c2ccc(Br)cc2c2nc3ccccc3nc21,GI50,[1],61.8 µM (inactive)
same,GI50,[2],14.1 µM (inactive)
same,GI50,[3],> 100 µM (inactive)
same,GI50,[4],> 100 µM (inactive)
same,GI50,[5],> 100 µM (inactive)
same,GI50,[6],> 100 µM (inactive)
same,GI50,[7],34.3 µM (inactive)
same,GI50,[8],> 100 µM (inactive)
same,GI50,[9],> 100 µM (inactive)
same,GI50,[10],50.5 µM (inactive)
same,GI50,[11],78.7 µM (inactive)
same,GI50,[12],> 100 µM (inactive)
same,GI50,[13],> 100 µM (inactive)
same,GI50,[14],> 100 µM (inactive)
same,GI50,[15],> 100 µM (inactive)
same,GI50,[16],20.1 µM (inactive)
same,GI50,[17],57.5 µM (inactive)
same,GI50,[18],> 100 µM (inactive)
same,GI50,[19],68.1 µM (inactive)
same,GI50,[20],49.3 µM (inactive)
same,GI50,[21],52 µM (inactive)
same,GI50,[22],> 100 µM (inactive)
same,GI50,[23],47.6 µM (inactive)
same,GI50,[24],85.9 µM (inactive)
same,GI50,[25],> 100 µM (inactive)
same,GI50,[26],31.6 µM (inactive)
same,GI50,[27],> 100 µM (inactive)
same,GI50,[28],> 100 µM (inactive)
same,GI50,[29],> 100 µM (inactive)
same,GI50,[30],> 100 µM (inactive)
same,GI50,[31],38.3 µM (inactive)
same,GI50,[32],> 100 µM (inactive)
same,GI50,[33],> 100 µM (inactive)
same,GI50,[34],> 100 µM (inactive)
same,GI50,[35],> 100 µM (inactive)
same,GI50,[36],> 100 µM (inactive)
same,GI50,[37],82 µM (inactive)
same,GI50,[38],> 100 µM
same,GI50,[39],> 100 µM (inactive)
same,GI50,[40],> 100 µM (inactive)
same,GI50,[41],> 100 µM (inactive)
same,GI50,[42],25.9 µM (inactive)
same,GI50,[43],55.5 µM (inactive)
same,GI50,[44],39.7 µM (inactive)
same,GI50,[45],23.2 µM (inactive)
same,GI50,[46],67.9 µM (inactive)
same,GI50,[47],> 100 µM (inactive)
same,GI50,[48],> 100 µM (inactive)
same,GI50,[49],39.6 µM (inactive)
same,GI50,[50],> 100 µM (inactive)
same,GI50,[51],> 100 µM (inactive)
same,GI50,[52],> 100 µM (inactive)
same,GI50,[53],> 100 µM (inactive)
same,GI50,[54],> 100 µM (inactive)
same,GI50,[55],> 100 µM (inactive)
